Source: ChEMBL document CHEMBL1140113, “Structural requirements for drug inhibition of the liver specific human organic cation transport protein 1” (J Med Chem, 2008)

molecular target: T1, OCT1 (SLC22A1) (Homo sapiens, UniProt O15245); experiment: in vitro; conditions: HEK293 cells that express human OCT1, probe 4-(4-(dimethylamino)styryl)-N-methylpyridinium
T1 sequence (O15245 whole entry): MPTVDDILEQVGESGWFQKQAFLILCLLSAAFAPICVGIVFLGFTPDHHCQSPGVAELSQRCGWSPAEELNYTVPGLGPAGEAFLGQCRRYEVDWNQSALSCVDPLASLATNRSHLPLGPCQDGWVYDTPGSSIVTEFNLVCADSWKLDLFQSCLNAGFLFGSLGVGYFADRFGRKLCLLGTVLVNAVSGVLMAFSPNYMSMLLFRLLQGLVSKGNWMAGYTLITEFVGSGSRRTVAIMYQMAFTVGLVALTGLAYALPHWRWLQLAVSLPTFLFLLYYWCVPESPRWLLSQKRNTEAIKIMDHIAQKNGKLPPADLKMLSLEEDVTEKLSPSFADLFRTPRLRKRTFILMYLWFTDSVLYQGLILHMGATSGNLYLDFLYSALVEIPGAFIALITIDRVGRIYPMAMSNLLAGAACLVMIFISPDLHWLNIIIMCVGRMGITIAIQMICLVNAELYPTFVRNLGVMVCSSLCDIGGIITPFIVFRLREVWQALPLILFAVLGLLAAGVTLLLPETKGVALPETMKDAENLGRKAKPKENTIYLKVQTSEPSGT

Row | SMILES | inhibition at 100 µM
1 | COc1cc2c(cc1O)CC[C@@H]1[C@@H]2CC[C@]2(C)[C@@H](O)CC[C@@H]12 [2-METHOXYESTRADIOL] | 74.3%
2 | NCC(CC(=O)O)c1ccc(Cl)cc1 (centres undefined) [BACLOFEN] | 20.7%
3 | C[C@](N)(Cc1ccc(O)c(O)c1)C(=O)O [METHYLDOPA] | -7.2%
4 | CCOC(=O)N1CCC(=C2c3ccc(Cl)cc3CCc3cccnc32)CC1 [LORATADINE] | 51.8%
5 | CC1(C)S[C@@H]2[C@H](NC(=O)[C@H](N)c3ccccc3)C(=O)N2[C@H]1C(=O)O [AMPICILLIN] | 20.3%
6 | CC(C)[N+]1(C)[C@@H]2CC[C@H]1C[C@@H](OC(=O)C(CO)c1ccccc1)C2 (some centres undefined) | 43.4%
7 | CC(=O)CC(c1ccccc1)c1c(O)c2ccccc2oc1=O (centres undefined) [WARFARIN] | 4%
8 | CN1CC(=O)NC1=N [CREATININE] | 13.3%
9 | N=C(N)c1ccc(CNC(=O)[C@@H]2CCN2C(=O)[C@H](NCC(=O)O)C2CCCCC2)cc1 | -0.2%
10 | N[C@@H](Cc1cc(I)c(Oc2cc(I)c(O)c(I)c2)c(I)c1)C(=O)O [LEVOTHYROXINE] | 12.7%
11 | CCCC(C)(COC(N)=O)COC(=O)NC(C)C (centres undefined) [CARISOPRODOL] | 19.8%
12 | CC(C)(C)c1ccc(C(O)CCCN2CCC(C(O)(c3ccccc3)c3ccccc3)CC2)cc1 (centres undefined) [TERFENADINE] | 65.4%
13 | O=C(O)c1cc(/N=N/c2ccc(S(=O)(=O)Nc3ccccn3)cc2)ccc1O [SULFASALAZINE] | -3.7%
14 | Cc1cnc(C(=O)NCCc2ccc(S(=O)(=O)NC(=O)NC3CCCCC3)cc2)cn1 [GLIPIZIDE] | -12.7%
15 | CC(C(=O)O)c1cccc(C(=O)c2ccccc2)c1 (centres undefined) [KETOPROFEN] | -9.4%
16 | CN1CCN(C2=Nc3cc(Cl)ccc3Nc3ccccc32)CC1 [CLOZAPINE] | 47.5%
17 | C[C@]12CC[C@@H]3c4ccc(O)cc4CC[C@H]3[C@@H]1CC[C@@H]2O [ESTRADIOL] | 83.5%
18 | CC(C)NCC(O)c1cc(O)cc(O)c1 (centres undefined) [METAPROTERENOL] | 12.6%
19 | CC(C)Cc1ccc(C(C)C(=O)O)cc1 (centres undefined) [IBUPROFEN] | 6.3%
20 | COc1ccc(CCN(C)CCCC(C#N)(c2ccc(OC)c(OC)c2)C(C)C)cc1OC (centres undefined) | 86.4%
21 | CCN(CC)CCCC(C)Nc1ccnc2cc(Cl)ccc12 (centres undefined) [CHLOROQUINE] | 46%
22 | N[C@H]1C(O)O[C@H](CO)[C@@H](O)[C@@H]1O (some centres undefined) [GLUCOSAMINE] | 13.9%
23 | CO[C@H]1/C=C/O[C@@]2(C)Oc3c(C)c(O)c4c(O)c(c(/C=N/N5CCN(C)CC5)c(O)c4c3C2=O)NC(=O)/C(C)=C\C=C\[C@H](C)[C@H](O)[C@@H](C)[C@@H](O)[C@@H](C)[C@H](OC(C)=O)[C@@H]1C [RIFAMPIN] | 26.2%

Row | SMILES | inhibition at 100 µM
24 | O=C1NC(=O)C(c2ccccc2)(c2ccccc2)N1 [PHENYTOIN] | -2%
25 | CC(=O)O[C@H]1C[C@@H]2CC[C@@H]3[C@H](CC[C@@]4(C)[C@H]3C[C@H]([N+]3(C)CCCCC3)[C@@H]4OC(C)=O)[C@@]2(C)C[C@@H]1[N+]1(C)CCCCC1 [PANCURONIUM] | -10.3%
26 | C=C[C@H]1C[N@@]2CC[C@H]1C[C@H]2[C@H](O)c1ccnc2ccc(OC)cc12 [QUININE] | 60.2%
27 | CC(=O)O[C@H]1C(=O)[C@@]2(C)[C@H]([C@H](OC(=O)c3ccccc3)[C@]3(O)C[C@H](OC(=O)[C@H](O)[C@@H](NC(=O)c4ccccc4)c4ccccc4)C(C)=C1C3(C)C)[C@]1(OC(C)=O)CO[C@@H]1C[C@@H]2O [PACLITAXEL] | 7.1%
28 | O=C1CC2(CCCC2)CC(=O)N1CCCCN1CCN(c2ncccn2)CC1 [BUSPIRONE] | 24.7%
29 | NCC1(CC(=O)O)CCCCC1 [GABAPENTIN] | 15.1%
30 | NS(=O)(=O)c1cc(C(=O)O)c(NCc2ccco2)cc1Cl [FUROSEMIDE] | 11.7%
31 | CC(C)(C)NCC(O)c1cc(O)cc(O)c1 (centres undefined) [TERBUTALINE] | 2.6%
32 | Cn1cc[nH]c1=S [METHIMAZOLE] | 11.6%
33 | CC(C)NC[C@H](O)c1ccc(O)c(O)c1 | 15.6%
34 | Cc1nc2n(c(=O)c1CCN1CCC(c3noc4cc(F)ccc34)CC1)CCCC2 [RISPERIDONE] | 39.3%
35 | O=c1[nH]cc(F)c(=O)[nH]1 [FLUOROURACIL] | 0.9%
36 | CCC(C)(C)C(=O)O[C@H]1C[C@@H](C)C=C2C=C[C@H](C)[C@H](CC[C@@H]3C[C@@H](O)CC(=O)O3)[C@H]21 [SIMVASTATIN] | 22.6%
37 | CCN(CC)CCNC(=O)c1ccc(NC(C)=O)cc1 [ACECAINIDE] | 13.7%
38 | CC(C)(C)NC(=O)[C@@H]1CN(Cc2cccnc2)CCN1C[C@@H](O)C[C@@H](Cc1ccccc1)C(=O)N[C@H]1c2ccccc2C[C@H]1O | 43%
39 | C[C@]12C[C@H](O)[C@H]3[C@@H](CCC4=CC(=O)CC[C@@]43C)[C@@H]1CC[C@@H]2C(=O)CO [CORTICOSTERONE] | 33.5%
40 | O=C(N[C@H](CO)[C@H](O)c1ccc([N+](=O)[O-])cc1)C(Cl)Cl [CHLORAMPHENICOL] | 1.4%
41 | CC(=O)S[C@@H]1CC2=CC(=O)CC[C@]2(C)[C@H]2CC[C@@]3(C)[C@@H](CC[C@@]34CCC(=O)O4)[C@H]12 [SPIRONOLACTONE] | 87.9%
42 | Nc1nc2c(ncn2COCCO)c(=O)[nH]1 [ACYCLOVIR] | -3.9%
43 | CC[C@H]1OC(=O)[C@H](C)[C@@H](O[C@H]2C[C@@](C)(OC)[C@@H](O)[C@H](C)O2)[C@H](C)[C@@H](O[C@@H]2O[C@H](C)C[C@H](N(C)C)[C@H]2O)[C@](C)(O)C[C@@H](C)C(=O)[C@H](C)[C@@H](O)[C@]1(C)O [ERYTHROMYCIN] | 14%
44 | COC(=O)CCc1ccc(OCC(O)CNC(C)C)cc1 (centres undefined) [ESMOLOL] | 31.2%
45 | CC1COc2c(N3CCN(C)CC3)c(F)cc3c(=O)c(C(=O)O)cn1c23 (centres undefined) [OFLOXACIN] | 21.1%
46 | NC(=O)N1c2ccccc2C=Cc2ccccc21 [CARBAMAZEPINE] | 8.4%

Row | SMILES | inhibition at 100 µM
47 | CN(Cc1cnc2nc(N)nc(N)c2n1)c1ccc(C(=O)N[C@@H](CCC(=O)O)C(=O)O)cc1 [METHOTREXATE] | 26.3%
48 | CC(C)NCC(O)c1ccc(NS(C)(=O)=O)cc1 (centres undefined) [SOTALOL] | 31.8%
49 | CCOC(=O)[C@H](CCc1ccccc1)N[C@@H](C)C(=O)N1CCC[C@H]1C(=O)O | 14.6%
50 | CCCC1O[C@@H]2C[C@H]3[C@@H]4CCC5=CC(=O)C=C[C@]5(C)[C@H]4[C@@H](O)C[C@]3(C)[C@]2(C(=O)CO)O1 (some centres undefined) [BUDESONIDE] | 38.2%
51 | COc1cc([C@@H]2c3cc4c(cc3[C@@H](O[C@@H]3O[C@@H]5CO[C@@H](C)O[C@H]5[C@H](O)[C@H]3O)[C@H]3COC(=O)[C@H]23)OCO4)cc(OC)c1O [ETOPOSIDE] | 7.5%
52 | CCCC(CCC)C(=O)O [VALPROIC ACID] | 19.6%
53 | O=C1Nc2ccc(Cl)cc2[C@@](C#CC2CC2)(C(F)(F)F)O1 [EFAVIRENZ] | 37%
54 | O=P(O)(O)C(Cl)(Cl)P(=O)(O)O [CLODRONIC ACID] | 5.6%
55 | CN(C)[C@@H]1C(O)=C(C(N)=O)C(=O)[C@@]2(O)C(O)=C3C(=O)c4c(O)cccc4[C@@](C)(O)[C@H]3C[C@@H]12 [TETRACYCLINE] | 10.4%
56 | CC/C(=C(\c1ccccc1)c1ccc(OCCN(C)C)cc1)c1ccccc1 [TAMOXIFEN] | 72.1%
57 | C[C@H]1c2cccc(O)c2C(=O)C2=C(O)[C@]3(O)C(=O)C(C(N)=O)=C(O)[C@@H](N(C)C)[C@@H]3[C@@H](O)[C@@H]21 [DOXYCYCLINE] | 27.4%
58 | CN1C[C@H](C(=O)N[C@]2(C)O[C@@]3(O)[C@@H]4CCCN4C(=O)[C@H](Cc4ccccc4)N3C2=O)C=C2c3cccc4[nH]cc(c34)C[C@H]21 [ERGOTAMINE] | 16.7%
59 | CCN(CC)CC(=O)Nc1c(C)cccc1C [LIDOCAINE] | -2.3%
60 | Cn1c(=O)c2c(ncn2C)n(C)c1=O [CAFFEINE] | -1.4%
61 | C[C@]12CCC(=O)C=C1CC[C@@H]1[C@@H]2CC[C@]2(C)C(=O)CC[C@@H]12 [ANDROSTENEDIONE] | 65.1%
62 | NC(N)=NCCCCN=C(N)N [ARCAINE] | 4.5%
63 | COc1ccc(CCN(C)CCCC(C#N)(c2cc(OC)c(OC)c(OC)c2)C(C)C)cc1OC (racemic) [METHOXYVERAPAMIL] | 78.1%
64 | CC1=C(CC(=O)O)c2cc(F)ccc2/C1=C\c1ccc([S+](C)[O-])cc1 (centres undefined) | 27.1%
65 | CN1C(=O)CN=C(c2ccccc2)c2cc(Cl)ccc21 [DIAZEPAM] | 5%
66 | Oc1ncnc2[nH]ncc12 [ALLOPURINOL] | 7.7%
67 | CCOC(=O)C1=C(C)NC(C)=C(C(=O)OC)C1c1cccc(Cl)c1Cl (centres undefined) [FELODIPINE] | 15.5%

same assay, conditions: hek293

Row | SMILES | inhibition at 100 µM
68 | CC(=O)[C@H]1CC[C@H]2[C@@H]3CCC4=CC(=O)CC[C@]4(C)[C@H]3CC[C@]12C [PROGESTERONE] | 55.7%
69 | CN1CCC[C@H]1c1cccnc1 [NICOTINE] | -3.7%
70 | NC(N)=Nc1nc(CSCCC(N)=NS(N)(=O)=O)cs1 [FAMOTIDINE] | 13.9%
71 | CNC[C@H](O)c1ccc(O)c(O)c1 [EPINEPHRINE] | 29.1%
72 | CC(C)c1cccc(C(C)C)c1O [PROPOFOL] | -17.9%
73 | C[N+](C)(C)CCO [CHOLINE] | 21.3%
74 | CN/C(=N/CCSCc1nc[nH]c1C)NC#N [CIMETIDINE] | 8.1%
